In patent US20240099998A1, “COMPOSITIONS AND METHODS FOR INDUCING DEFECATION” (priority 2021, published 2024):

Columns and labels:
[1] = tested on: conscious dogs, colon; conditions: intracolonic administration; cited from earlier work
[2] = tested on: anesthetized acute T9-transected SCI rat, rectal pressure; assay: Rectal pressure recording in anesthetized acute spinal cord injured (SCI) rat; type: in vivo; conditions: cotton ball suppository soaked in 50 uL of 0.2% solution, acute T9-transected SCI female rat
Description: For the acute SCI model, animals were anesthetized with urethane (1.0-1.4 g/kg subcutaneous injection), the skin and muscle on the dorsal side at the level of the thoracic vertebrae were incised, and the spinal cord was carefully exposed by a laminectomy and transected at T8-T10 spinal level. Gelfoam^R was placed at the incision site and the muscle and skin overlying the vertebrae were closed with wound clips. The spinal cord was transected at least 60 min before starting the experimental protocol.
For all rectal contractility studies, animals were anesthetized with urethane (1.0-1.4 g/kg subcutaneous injection). […]
Rectal Contractility: Rectal pressures were measured via a latex balloon catheter (length 1.5-4 cm) inserted (˜4 cm) into the distal rectal region. […] Parameters measured included peak rectal pressure response, duration of time above baseline activity (in the 1st 5 min after drug administration), area under the curve (measured during the 1st 5 min after drug administration) and the number of contractile events after vehicle and drug administration.
Methods: Capsaicin was administered to 2 anesthetized female rats instrumented for rectal pressure recording via a balloon catheter inserted into the rectum 2-4 cm from the anus. […] Top and bottom traces in FIG. 9 were recorded from individual female rats.

[3] = tested on: anesthetized naïve (spinal intact) rats, rectal pressure; assay: Rectal (colorectal) pressure recording via balloon catheter after intrarectal dosing in anesthetized spinal intact rats; type: in vivo, rat
Description: General: In vivo studies were performed in anesthetized, spinally intact rats (N=10). Adult male Sprague Dawley rats (Charles River, 250-300 g) were housed at an AAALAC approved facility in cages (2-3/cage) with free access to water and food in a colony room that was maintained on a 12 hr light/12 hr dark cycle 1-2 weeks before the experiment. Rats were anesthetized with urethane (1.2-1.4 g/kg subcutaneous injection). Surgical procedures were then performed with the addition of isoflurane anesthesia (0.05-1.5% in O2) as the full anesthetic effect of urethane takes about 1-2 hrs.
A catheter filled with heparinized saline (30 unit/ml) was inserted into the carotid artery and connected to a pressure transducer for measurement of blood pressure and heart rate. A catheter was inserted into the jugular vein for intravenous (i.v.) administration of drugs.
Colorectal Contractility: Colorectal pressures were measured via a latex balloon catheter (length 2-3 cm) inserted (˜3-4 cm) into the distal colorectal region. The catheter was connected to a pressure monitoring system. The pressure in the balloon catheter was slowly increase to 10-15 mmHg by infusing saline (0.2-0.5 ml total volume) and this pressure was maintained throughout the study. This allowed drug induced changes in colorectal pressure to be monitored. Parameters measured include peak colorectal pressure response, duration of time above baseline activity (in the 1st 5 min after drug administration), area under the curve (measured during the 1st 5 min after drug administration) and the number of contractile events after vehicle and drug administration.
Dosing: Intrarectal TRPV1 agonists were administered in a dose range of 0.01-2% wt/vol. Nonivamide, OEA, OLDA and capsaicin were dissolved in 95% ethanol at 20-100 mg/mL and then diluted to 0.01-2% with the vehicle (Tween-80:95% ethanol:saline in a ratio of 10:10:80) and administered intrarectally as a solution using a small gauge tube, or a solution soaked cotton wool plug, to mimic a suppository-like dosage form.
Methods: The TRPV1 receptor agonist nonivamide was administered to anesthetized spinal intact male rats (N=6) instrumented for rectal pressure recording via a balloon catheter inserted into the rectum 3-4 cm from the anus. A 0.1% solution (0.2 mL of a 1 mg/ml solution in Tween-80:ethanol:saline (ratio 10:10:80)) of nonivamide was administered via a 20 gauge feeding tube that was inserted ˜2 cm into the rectum. For comparison, vehicle (Tween-80:ethanol:saline in a ratio of 10:10:80) was administered using the same techniques.
Methods: The TRPV1 receptor agonist nonivamide was administered to anesthetized spinal intact male rats instrumented for rectal pressure recording via a balloon catheter inserted into the rectum 3-4 cm from the anus. A 1% solution (0.2 mL of a 10 mg/ml solution in Tween-80:ethanol:saline (ratio 10:10:80)) of nonivamide was administered via a 20 gauge feeding tube that was inserted 2-3 cm into the rectum.
Methods: Nonivamide was administered to a naive anesthetized male rat instrumented for rectal pressure recording via a balloon catheter inserted into the rectum 2-4 cm from the anus. To mimic a suppository dosage form, nonivamide (1%) was administered via a fluid-soaked small cotton wool plug. The cotton wool plug was placed into the anal canal at the distal rectum.
Methods: OAE (N=4) was administered to anesthetized naïve male rats (N=5) instrumented for rectal pressure recording via a balloon catheter inserted into the rectum 3-4 cm from the anus. OEA was administered as 0.01-0.2% solution (0.2 mL of a […] solution in Tween-80:95% ethanol:saline (ratio 10:10:80)) via a small cotton wool plug soaked in 0.2 mL of solution, to mimic a suppository dosage form, that was inserted into the rectum. For comparison, vehicle was administered to all rats using the same techniques. […]

[4] = tested on: rectal afferent terminals; conditions: human subjects; cited from earlier work
[5] = tested on: conscious spinal intact rats, defecation; assay: Defecation in conscious rats monitored in metabolism cages after intrarectal dosing; type: in vivo, rat
Description: Defecation in awake animals was monitored in metabolism cages. Animals were habituated to handling and the metabolism cages on 2-4 occasions prior to dosing and were then randomized to a treatment arm. Rats were weighed and placed into metabolism cages for 10 min prior to intrarectal administration of vehicle or TRPV1 agonist. The number of fecal pellets and timing of events were recorded by trained personnel that were blinded to treatment. Fecal weight was weighed at 20 min post dosing.
Defecation in conscious rats was monitored in metabolism cages. Rats were habituated to handling and the metabolism cages on 2-4 occasions before dosing, then randomized to the treatment arm. Rats were weighed and placed into metabolism cages for 10 min prior to receiving an intrarectal dose of vehicle or capsaicin. Since manual stimulation during intrarectal dosing in conscious rats can induce defecation, palpation of the distal rectum was performed to remove any fecal pellets located in the region of the anal sphincter. […] Once the anal sphincter had ceased contracting/relaxing (15-90 s) a fine catheter (22 G soft/flexible blunt tip catheter) was used to dose the vehicle or capsaicin, as this method produced little manual stimulation. Capsaicin was prepared as a 0.01, 0.1 or 1% solution (0.1, 1 or 10 mg/ml in tween-80/ethanol/saline (ratio of 10/10/80) or vehicle. Dose volumes were 0.1 mL and administered via the catheter inserted ˜1 inch through the anus into the rectum. The number of fecal pellets and timing of events were recorded by trained personnel blinded to the treatment. Fecal weight was recorded at 20 min post dosing.

[6] = 0.2% solution, 0.05-0.32 mL intrarectal
[7] = cotton ball suppository soaked in 50 uL of 0.2% solution, spinal intact naïve female rat
[8] = cotton wool plug (1% in FIG. 7A), intrarectal, N=3
[9] = intrarectal solution, conscious rats
[10] = 0.2%, cotton wool plug soaked in 0.2 mL, N=1
[11] = cotton wool plug soaked in 0.2 mL of 0.2% solution
[12] = 0.01-0.2% solution, cotton wool plug soaked in 0.2 mL, intrarectal
[13] = 0.1% solution, 0.2 mL intrarectal
[14] = 1% solution, 0.2 mL intrarectal

COc1cc(CNC(=O)CCCC/C=C/C(C)C)ccc1O [Capsaicin]
effect on colon and defecation [1]: initiate defecation
duration of rectal pressure increase [2]: < 5 min
onset of rectal pressure increase [2]: < 2 min
duration of rectal pressure increase [3, 6]: 5 min
onset time of rectal pressure increase [3, 6]: 1 to 2 min
rats with transient rectal pressure increase ([3]; 0.2% solution, 0.05-0.32 mL intrarectal via PE50 tube, 4 males and 1 female): 5 of 5
peak colorectal pressure ([3]; 1% soaked cotton wool plug, FIG. 7A, example of one male rat): ~40 mmHg
duration of rectal pressure increase [3, 7]: < 5 min
onset of rectal pressure increase [3, 7]: < 2 min
duration of increase in colorectal pressure [3, 8]: < 5 min
onset of increase in colorectal pressure [3, 8]: < 1 min
reported sensations after intrarectal administration [4]: an urge to defecate
number of fecal pellets expelled compared to vehicle ([5]; 1% solution, 0.1 mL intrarectal, 10 min after dosing, N=6, p<0.05): significantly increased
total weight of fecal pellets expelled compared to vehicle ([5]; 1% solution, 0.1 mL intrarectal, 20 min after dosing, N=6, p<0.05): significantly increased
time to completion of defecation [5, 9]: ≤ 10 min
time to defecation [5, 9]: ≤ 5 min

CCCCCCCC/C=C\CCCCCCCC(=O)NCCc1ccc(O)c(O)c1 [OLDA, N-Oleoyldopamine]
duration of rectal pressure increase [3, 10]: 5 min
onset time of rectal pressure increase [3, 10]: 0.5 to 2 min
rectal response: expulsion of balloon catheter [3, 11]: sufficient to expel the balloon catheter

CCCCCCCC/C=C\CCCCCCCC(=O)NCCO [OEA, Oleoylethanolamide]
duration of rectal pressure increase [3, 12]: 5 to 10 min
onset time of rectal pressure increase [3, 12]: 0.5 to 2 min
defecation in anesthetized rat (FIG. 5) [3, 11]: defecation of fecal pellets
rectal response: expulsion of balloon catheter [3, 11]: sufficient to expel the balloon catheter

CCCCCCCCC(=O)NCc1ccc(O)c(OC)c1 [Nonivamide]
duration of rectal pressure increase [3, 13]: 5 min
onset time of rectal pressure increase [3, 13]: 1 to 2 min
rats with transient rectal pressure increase ([3]; 0.1% solution, 0.2 mL intrarectal via feeding tube, male rats): 6 of 6
duration of rectal pressure increase [3, 14]: 5 to 10 min
onset time of rectal pressure increase [3, 14]: 1 to 2 min
rectal response: expulsion of balloon catheter ([3]; cotton wool plug soaked in 0.2 mL of 1% solution): sufficient to expel the balloon catheter
onset of increase in rectal pressure ([3]; cotton wool plug soaked in 0.2 mL of 1% solution, 1 male rat): ≤ 1 min
